# Patent publication US7728036B2, “Methods for delivery of catecholic butanes for treatment of tumors” (priority 2003, dated 2010)
# Columns and labels:
# [1] = tested on: HPV-16 transformed immortal mouse epithelial cells (C3); details: intratumor injection; cited from earlier work
# Solubility character = format: physicochemical
# [2] = tested on: human mammary carcinoma MX-1 xenograft; details: intratumor injection or topical application of NDGA; cited from earlier work
Structure (SMILES),Suppression of tumor growth / tumoricidal activity [1],Water solubility / hydrophilic or lipophilic character (Solubility character),Inhibition of tumor growth [2]
"C[C@H](Cc1ccc(OC(=O)CN(C)C)c(OC(=O)CN(C)C)c1)[C@@H](C)Cc1ccc(OC(=O)CN(C)C)c(OC(=O)CN(C)C)c1 [G4N, meso-1,4-bis[3,4-(dimethylaminoacetoxy)phenyl]-(2R,3S)-dimethylbutane]",some evidence of suppression of tumor growth,"water-soluble, hydrophilic",
"CC(Cc1ccc(O)c(O)c1)C(C)Cc1ccc(O)c(O)c1 (stereo not drawn) [NDGA, nordihydroguaiaretic acid]",,,Some evidence of inhibition of tumor growth
